Consider one substance from article PMC12073449, “Development of a Mechanism of Action-Reflective Cell-Based Reporter Gene Assay for Measuring Bioactivities of Therapeutic Glucagon-like Peptide-2 Analogues” (Molecules, 2025).

Details of series [1]: method as in PMID 35933503. The following applies: general statement; cited from earlier work. From the text:
The diverse functions of GLP-2 highlight its significance in maintaining intestinal health and physiology. As a naturally occurring gut hormone, GLP-2 not only promotes nutrient absorption by decreasing intestinal motility and permeability, but also plays a pivotal role in stimulating intestinal epithelial cell growth and function. This multifaceted action of GLP-2 is crucial for the maintenance of the intestinal barrier, which is essential for preventing the translocation of harmful bacteria and toxins into the bloodstream.

The next series addresses T1, human GLP-2R (Homo sapiens, UniProt O95838).
T1 construct: The full-length cDNA of human GLP-2R was synthesized, cloned, and inserted into the pLU.cmv.Zeo vector; expressed in transfected cells
T1 sequence (O95838 1-553): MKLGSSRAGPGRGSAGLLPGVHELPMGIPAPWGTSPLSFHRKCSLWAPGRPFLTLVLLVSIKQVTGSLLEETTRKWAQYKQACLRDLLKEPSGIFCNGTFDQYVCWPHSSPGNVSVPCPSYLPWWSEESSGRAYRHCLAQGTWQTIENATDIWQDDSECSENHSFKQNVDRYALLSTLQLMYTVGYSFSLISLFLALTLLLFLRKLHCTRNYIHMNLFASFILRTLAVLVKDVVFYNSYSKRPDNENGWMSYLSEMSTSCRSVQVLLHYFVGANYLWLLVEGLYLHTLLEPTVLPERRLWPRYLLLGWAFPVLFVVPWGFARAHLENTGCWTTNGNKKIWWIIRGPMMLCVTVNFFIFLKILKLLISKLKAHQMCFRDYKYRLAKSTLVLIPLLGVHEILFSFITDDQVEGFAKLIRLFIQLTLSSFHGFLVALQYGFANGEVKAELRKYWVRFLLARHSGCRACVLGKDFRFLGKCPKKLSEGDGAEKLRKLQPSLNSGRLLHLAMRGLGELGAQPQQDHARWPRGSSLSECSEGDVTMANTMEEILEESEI
The series is described as follows: Cell-based reporter gene assay (RGA), HEK293-GLP-2R-Luc, CRE-luciferase. The following applies: diluted to 2.665 µmol/L and further 7-fold for 10 concentration points; HEK293-GLP-2R-Luc cells. As to the method: To generate a HEK293 cell line stably expressing CRE-driven luciferase and GLP2R, the CRE-miniP.Luc virus-containing cell supernatants were diluted in DMEM in the presence of 8 µg/mL polybrene before being added to HEK293 cells. To obtain a stable cell pool, the medium was replaced 48 h after incubation, with fresh culture medium containing 3 µg/mL puromycin. After about 3 weeks selection, the cell pool was then further infected with pLU.cmv-GLP2R.Zeo virus and selected with 200 µg/mL Zeocin and 3 µg/mL puromycin. […] The expression of GLP-2R was examined using flow cytometry. After that, the positive clones were routinely maintained in selective medium.
Cell-based RGA has been described previously. Briefly, 50 microliters of HEK293-GLP-2R-Luc cells were seeded into a 96-well white plate at a density of 4 × 10^4 cells/well. The cells were then incubated at 37 °C with 5% CO2 overnight (16 to 24 h). […] After 5 h of incubation, 100 µL of britelite plus reporter Gene Assay reagent were added to each well and mixed thoroughly under subdued light conditions for 5 min. The RLU signal was then determined with a SpectraMax M5e multimode plate reader (Molecular Devices, San Jose, CA, USA).
The RGA was validated as described previously. […] Samples of each potency level were tested by two analysts 8 times in total. […] The response of HEK293-GLP2R-Luc cells to these samples were determined as illustrated in 4.6.
The lower/upper asymptote was determined by the ratio of the top asymptote to the bottom asymptote when RGA best fit the 4PL model. The correlation coefficient (R^2), deviations from parallelism, and the regression in the 4PL model were estimated using SoftMax® Pro 7.1 software (Molecular Devices, San Jose, CA, USA). Specifically, a linear regression with an R^2 value no less than 0.98 was considered to have a very good fit. Additionally, a p-value below 0.01 was regarded as statistically significant. […] All the dose-response curves were plotted using GraphPad Prism® software 8.0.2 (GraphPad, Boston, MA, USA).
(In a reporter assay the amount or activity of a reporter protein is the signal.)

Ends that are not written are not given here.

For “HGEGTFSSELATILDALAARDFINWLIATKITDKKKKKK-NH2 [glepaglutide]”, in series [1], the bioactivity result is “enhanced bioactivities” and the half-life result is given as “extended half-lives”. The “dose-response curve in RGA” value at human GLP-2R is “induced sigmoid curves similar to those induced by teduglutide”.
